Laboratory results taken from patent publication US20050020553A1, “Prevention of miscarriage with immunomodulating non-endogenous gestagen compounds” (Solvay Pharmaceuticals GmbH, priority 2001, published 2005).

How the values were obtained:
[1] = target: T1, human progesterone receptor (Homo sapiens, UniProt P06401); details: cited from earlier work
T1 sequence (P06401 1-933): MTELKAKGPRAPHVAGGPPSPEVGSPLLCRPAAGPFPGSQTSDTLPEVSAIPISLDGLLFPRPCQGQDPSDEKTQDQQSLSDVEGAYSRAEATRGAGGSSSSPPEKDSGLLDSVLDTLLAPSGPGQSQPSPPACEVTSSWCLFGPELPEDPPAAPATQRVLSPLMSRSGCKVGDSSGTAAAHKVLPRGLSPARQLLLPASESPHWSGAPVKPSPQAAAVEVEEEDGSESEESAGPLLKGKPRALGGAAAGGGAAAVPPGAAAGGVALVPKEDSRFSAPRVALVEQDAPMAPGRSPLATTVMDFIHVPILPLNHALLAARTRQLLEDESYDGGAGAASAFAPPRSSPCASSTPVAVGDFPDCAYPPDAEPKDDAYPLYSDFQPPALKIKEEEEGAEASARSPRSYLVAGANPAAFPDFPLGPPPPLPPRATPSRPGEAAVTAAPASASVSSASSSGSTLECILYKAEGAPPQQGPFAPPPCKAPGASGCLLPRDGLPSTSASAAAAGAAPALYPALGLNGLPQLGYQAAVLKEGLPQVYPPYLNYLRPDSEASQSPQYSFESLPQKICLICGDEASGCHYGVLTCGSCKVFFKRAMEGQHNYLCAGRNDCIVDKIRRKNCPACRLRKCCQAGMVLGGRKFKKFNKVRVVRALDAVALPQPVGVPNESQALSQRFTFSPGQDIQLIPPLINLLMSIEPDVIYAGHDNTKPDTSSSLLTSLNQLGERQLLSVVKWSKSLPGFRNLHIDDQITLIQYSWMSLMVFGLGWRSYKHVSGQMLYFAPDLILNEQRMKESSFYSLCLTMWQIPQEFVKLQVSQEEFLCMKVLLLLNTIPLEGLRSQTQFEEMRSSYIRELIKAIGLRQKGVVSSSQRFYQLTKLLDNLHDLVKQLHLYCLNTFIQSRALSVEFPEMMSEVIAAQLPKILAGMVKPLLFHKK

pregnant mice = assay: Murine stress-induced (ultrasound) abortion model; assay type: in vivo
Description: The results of the pharmacological test method given above can also be confirmed in an in vivo test model involving pregnant mice. […] Pregnant mice were exposed to ultrasound on day 5 of gestation. This stress increased the abortion rate of these mice from around 12% to 44%. Treatment with dydrogesterone reduced the abortion in a dose-related manner to as low as 5%.

[2] = test system: peripheral blood mononuclear cells (=PBMC); assay: Mitogen-induced stimulation of PBMC from women with unexplained habitual abortion, cytokine levels by ELISA; assay type: cell-based, human (women); details: for levels of IL-4 / levels of IL-6 / production of the Th1 cytokine IFN-gamma: PHA-stimulated PBMC from women with unexplained habitual abortion, 96 hours in culture, ELISA
Description: The effects of dydrogesterone on Th1 and Th2 cytokine profiles produced by mitogen-stimulated peripheral blood mononuclear cells (=PBMC) were established. The effects of dydrogesterone on Th1 and Th2 cytokine production were investigated in peripheral blood lymphocytes from women with unexplained habitual abortion. The peripheral mononuclear cells were stimulated with mitogen (phytohaemagglutinin) in vitro, in the presence and absence of dydrogesterone. The levels of cytokines secreted were measured after 96 hours in culture. […] Several studies have pointed to a deviation of cytokine profiles in women when during pregnancy. Pregnancy is associated with a shift towards Th2 bias, evinced by changes in peripheral T cells, by cytokine production by peripheral lymphocytes and by cytokine changes at the maternal-fetal interface. Unexplained recurrent spontaneous abortion (URSA) seems to be associated with a stronger bias towards Th1 cytokines. Women who have earlier been gone through URSA may therefore be regarded as a pre-selected group of patients that will typically respond to an immunological stimulation by showing a Th1 dominated pattern of immune response. The pharmacological test was therefore performed with a suitable URSA group which comprised of women admitted with spontaneous abortion for evacuation, (i) who have had at least two previous unexplained miscarriages, (ii) who were currently undergoing at least a 3rd abortion and (iii) who had been fully investigated. The relationship between habitual abortion and cytokine production response in 54 women with normal pregnancy (and at least 3 previous normal pregnancies) and 23 women with a history of habitual abortion of unexplained aetiology (URSA group) has been investigated. Peripheral blood was obtained by venipuncture from the abortion group on the day of abortion. PBMC is separated by Ficoll-paque (Pharmacia Biotech, Sweden) density gradient centrifugation, suspended in RPMI medium (=“Roswell Park Memorial Institute”-medium; obtained from GIBCO/BRL, USA) containing 10% fetal calf serum, aliquoted into 96 well tissue culture plates at a density of 100.000 cells per well and then stimulated with the mitogen phytohemagglutinin (=PHA, Sigma Chemicals, USA) at a concentration of […] for a period of 96 hours, with autologous placental antigens or with trophoblast antigens. Progesterone, dydrogesterone (Duphaston®) and RU486 (=mifepristone) was added in different combinations as described below. Progesterone was tested at concentrations of […]. RU486 was tested at equivalent concentrations. Culture supernatants were harvested at 96 hours for determination of the levels of cytokines secreted by the PBMC into the supernatants. Cytokine levels were determined in the supernatants by enzyme-linked immunosorbent assay (=ELISA). Each sample was tested in the following manner: • PBMC+mitogen • PBMC+mitogen+progesterone • PBMC+mitogen+progesterone+RU486 • PBMC+mitogen+dydrogesterone • PBMC+mitogen+dydrogesterone+RU486 • PBMC+mitogen+Carrier • PBMC+mitogen+Carrier+RU486 Determination of cytokine levels by ELISA: Th1 cytokines TNF-α and IFN-γ, and Th2 cytokines IL-4, IL-6 and IL-10 were evaluated in these samples by ELISA using kits that were obtained from Immunotech SA, France. These consisted of “sandwich ELISA”. Briefly, the first step leads to the capture of the relevant cytokine by monoclonal anti-cytokine antibodies bound to the wells of microtiter plates. In the second step, a second biotinylated monoclonal is added together with streptavidin-enzyme (peroxidase or alkaline phosphatase) conjugate. The biotinylated antibody binds to the solid phase antibody-antigen complex, and in turn, binds the conjugate. After incubation the wells are washed and the binding of the streptavidin-enzyme via biotin is followed by the addition of a chromogenic substrate. The intensity of the coloration produced is proportional to the concentration of the cytokine in the sample. […]

[3] = in vivo; cited from earlier work
[4] = test system: Th1 cytokine production to trophoblast; details: women with recurrent pregnancy loss; Choi et al., Human Reproduction 15/1 (2000); cited from earlier work
[5] = ex-vivo, women with spontaneous abortion and habitual abortion

SMILES | selectivity as progesterone receptor agonist [1] | Th1/Th2 cytokine production (pregnant mice; murine stress-induced abortion model) | level of IL-4 (pregnant mice; pregnant mice exposed to ultrasound on day 5 of gestation) | abortion rate (pregnant mice; pregnant mice exposed to ultrasound on day 5 of gestation, stress raised rate from around 12% to 44%, dose-related) | levels of IL-4 [2] | levels of IL-6 [2] | production of the Th1 cytokine IFN-gamma [2] | levels of IL-4 ([2]; listed as Dydrogesterone) | levels of IL-6 ([2]; listed as Dydrogesterone) | production of the Th1 cytokine IFN-gamma ([2]; listed as Dydrogesterone) | Th1/Th2 bias [2, 5] | activity of lymphocytes [2, 5] | release of progesterone induced blocking factor (PIBF) [2, 5] | androgenic effects in the mother (hirsutism, voice changes, acne) [3] | masculinizing effect on the female fetus [3] | in-vitro embryotoxic Th1 cytokine production to trophoblast [4]
CC(=O)[C@H]1CC[C@H]2[C@@H]3C=CC4=CC(=O)CC[C@@]4(C)[C@@H]3CC[C@]12C [dydrogesterone] | highly selective progesterone receptor agonist | shift from Th1 to Th2-cytokine production | increased level | ≥ 5% | marked increase | marked increase | reduction | increased | increased | strongly suppressed | shift from a Th1 towards a Th2 bias | reduced the activity of lymphocytes | increased release | no androgenic effects | no masculinizing effect | 
CC(=O)[C@H]1CC[C@H]2[C@@H]3CCC4=CC(=O)CC[C@]4(C)[C@H]3CC[C@]12C [progesterone] |  |  |  |  |  |  |  |  |  |  |  |  |  |  |  | inhibits
